# Source: publication PMC7834599 (Bioorganic & Medicinal Chemistry Letters, 2020)
# Columns and labels:
# CYP2C9 = CYP2C9 (Homo sapiens, UniProt P11712); experiment: CYP inhibition in human liver microsomes; assay type: in vitro ADME
# ASC = ASC oligomerization assay in THP-1 cells; assay type: cell-based, Human; settings: LPS-ATP NLRP3 activated THP-1 cells, western blot
# AIM2 inflammasome = molecular target: T1, AIM2 inflammasome (Homo sapiens, UniProt O14862); experiment: Poly; assay type: cell-based; settings: THP-1 cells, Poly (dA:dT)
# T1 sequence (O14862 1-343): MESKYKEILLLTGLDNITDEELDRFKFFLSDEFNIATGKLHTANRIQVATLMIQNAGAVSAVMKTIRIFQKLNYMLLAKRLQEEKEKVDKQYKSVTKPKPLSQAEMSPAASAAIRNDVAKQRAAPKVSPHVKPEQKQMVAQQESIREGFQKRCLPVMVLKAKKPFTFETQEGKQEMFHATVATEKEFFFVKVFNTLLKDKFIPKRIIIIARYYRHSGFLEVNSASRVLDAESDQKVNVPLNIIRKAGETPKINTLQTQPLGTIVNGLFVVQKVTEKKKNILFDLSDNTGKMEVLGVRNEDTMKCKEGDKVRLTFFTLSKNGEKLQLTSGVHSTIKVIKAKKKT
# CYP2C8 = molecular target: T2, CYP2C8 (Homo sapiens, UniProt P10632); experiment: CYP inhibition in human liver microsomes; assay type: in vitro ADME
# T2 sequence (P10632 1-490): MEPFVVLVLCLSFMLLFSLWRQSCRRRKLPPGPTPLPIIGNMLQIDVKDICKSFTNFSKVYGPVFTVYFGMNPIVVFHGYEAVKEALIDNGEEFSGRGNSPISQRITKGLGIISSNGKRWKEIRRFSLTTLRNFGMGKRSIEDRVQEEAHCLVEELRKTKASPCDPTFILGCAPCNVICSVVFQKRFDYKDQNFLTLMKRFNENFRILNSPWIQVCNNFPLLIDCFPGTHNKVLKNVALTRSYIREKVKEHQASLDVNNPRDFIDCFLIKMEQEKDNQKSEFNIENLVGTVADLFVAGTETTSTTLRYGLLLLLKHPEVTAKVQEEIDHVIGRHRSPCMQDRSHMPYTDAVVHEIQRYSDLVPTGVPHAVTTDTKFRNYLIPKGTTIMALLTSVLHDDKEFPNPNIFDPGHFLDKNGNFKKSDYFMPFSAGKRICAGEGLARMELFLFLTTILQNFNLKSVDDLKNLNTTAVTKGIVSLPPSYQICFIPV
# TNF-α = TNF-α release in LPS-ATP treated THP-1 cells; assay type: cell-based, Human
# NLRP3 inflammasome = NLRP3 inflammasome (Homo sapiens, UniProt Q96P20); experiment: IL-1β release assay, NLRP3 inflammasome activation in THP-1 cells; assay type: cell-based
# Chain of NLRP3 inflammasome (Q96P20 whole entry): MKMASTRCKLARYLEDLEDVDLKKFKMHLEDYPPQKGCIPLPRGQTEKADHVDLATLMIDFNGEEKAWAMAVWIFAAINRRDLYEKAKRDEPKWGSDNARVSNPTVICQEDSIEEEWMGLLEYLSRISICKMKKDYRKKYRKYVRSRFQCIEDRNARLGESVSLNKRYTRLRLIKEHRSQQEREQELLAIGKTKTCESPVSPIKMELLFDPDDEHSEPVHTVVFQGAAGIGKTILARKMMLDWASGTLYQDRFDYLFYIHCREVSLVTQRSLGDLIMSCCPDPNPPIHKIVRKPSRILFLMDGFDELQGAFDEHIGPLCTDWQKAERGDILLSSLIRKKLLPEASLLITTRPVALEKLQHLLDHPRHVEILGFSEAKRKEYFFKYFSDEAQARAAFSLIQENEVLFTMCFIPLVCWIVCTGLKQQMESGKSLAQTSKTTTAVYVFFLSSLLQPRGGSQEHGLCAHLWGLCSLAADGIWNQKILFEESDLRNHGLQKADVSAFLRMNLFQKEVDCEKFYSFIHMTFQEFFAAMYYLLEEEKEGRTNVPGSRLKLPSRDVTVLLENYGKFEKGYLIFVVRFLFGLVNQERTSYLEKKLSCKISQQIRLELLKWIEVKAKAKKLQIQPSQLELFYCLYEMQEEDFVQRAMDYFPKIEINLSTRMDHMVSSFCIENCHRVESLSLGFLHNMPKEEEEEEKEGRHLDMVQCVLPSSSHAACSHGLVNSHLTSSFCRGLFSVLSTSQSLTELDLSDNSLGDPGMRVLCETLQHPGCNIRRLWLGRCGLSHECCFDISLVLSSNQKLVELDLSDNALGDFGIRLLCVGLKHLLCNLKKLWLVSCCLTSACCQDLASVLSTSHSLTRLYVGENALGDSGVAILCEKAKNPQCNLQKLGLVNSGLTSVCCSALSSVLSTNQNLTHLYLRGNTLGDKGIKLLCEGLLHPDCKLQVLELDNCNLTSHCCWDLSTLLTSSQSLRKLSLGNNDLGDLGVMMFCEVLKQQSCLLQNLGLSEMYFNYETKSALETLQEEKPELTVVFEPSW
# Chain of CYP2C9 (P11712 whole entry): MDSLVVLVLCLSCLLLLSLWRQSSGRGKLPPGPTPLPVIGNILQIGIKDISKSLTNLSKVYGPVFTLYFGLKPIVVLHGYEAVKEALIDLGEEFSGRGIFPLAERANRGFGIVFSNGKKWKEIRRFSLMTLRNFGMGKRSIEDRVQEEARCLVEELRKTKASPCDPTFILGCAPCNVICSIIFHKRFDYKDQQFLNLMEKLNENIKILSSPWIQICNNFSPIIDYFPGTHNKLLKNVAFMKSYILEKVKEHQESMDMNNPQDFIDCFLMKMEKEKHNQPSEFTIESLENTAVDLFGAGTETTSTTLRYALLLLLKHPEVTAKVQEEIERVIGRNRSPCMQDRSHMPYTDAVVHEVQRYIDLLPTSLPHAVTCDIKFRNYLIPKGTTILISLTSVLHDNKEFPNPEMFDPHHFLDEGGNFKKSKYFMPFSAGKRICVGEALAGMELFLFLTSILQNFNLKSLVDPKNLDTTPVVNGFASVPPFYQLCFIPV
CYP2C9 inhibition (in words) (CYP2C9),inhibition of secreted IL-1β in AIM2 inflammasome activation (in words) (AIM2 inflammasome),CYP2C8 inhibition (in words) (CYP2C8),"IC50 (TNF-α; Homo sapiens, THP-1, read-out: TNF-α IC50) [µM]",IC50 (NLRP3 inflammasome) [µM],"inhibition at 1 µM (NLRP3 inflammasome; THP-1, read-out: inhibition of secreted IL-1β) [%]",Compound,ASC oligomerization (in words) (ASC),"inhibition of secreted TNF-α (in words) (TNF-α; THP-1 cells, LPS-ATP, up to high concentration)"
inhibit,no effect,inhibit,> 10,,,"O=C(Nc1c2c(cc3c1CCC3)CCC2)NS(=O)(=O)/C=C/c1nccs1 [Compound 7, (E)-N-((1,2,3,5,6,7-hexahydro-s-indacen-4-yl)carbamoyl)-2-(thiazol-2-yl)ethene-1-sulfonamide]",blocked the oligomerisation of ASC,not affected
,,,,> 1,< 50,O=C(NS(=O)(=O)/C=C/c1nccs1)c1c2c(cc3c1OCC3)OCC2 [Compound 20],,
